#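 Growth conditions: 96-well plates. Treatment: test compound, 48 hours, 5 concentrations. Analysis: linear interpolation between bracketing concentrations; unreached endpoints set to highest concentration. The concentration for 50% growth inhibition is given as GI50. The concentration for full growth arrest is given as TGI.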
# Legend:
# Experiment in all cases: NCI-60 cell line screen, 48 h
# [1] = test system: MOLT-4 leukemia
# [2] = test system: COLO 205 colon
# [3] = test system: MDA-MB-468 breast
# [4] = test system: LOX IMVI melanoma
# [5] = test system: SK-MEL-5 melanoma
# [6] = test system: SW-620 colon
# [7] = test system: HCT-15 colon
# [8] = test system: A549 NSCLC
# [9] = test system: SN12C renal
# [10] = test system: RPMI-8226 leukemia
# [11] = test system: UACC-62 melanoma
# [12] = test system: MALME-3M melanoma
# [13] = test system: MDA-MB-435
# [14] = test system: HT29 colon
# [15] = test system: CCRF-CEM leukemia
# [16] = test system: U251 CNS
# [17] = test system: SK-MEL-28 melanoma
# [18] = test system: OVCAR-8 ovarian
# [19] = test system: NCI-H23 lung
# [20] = test system: SF-539 CNS
# [21] = test system: M14 melanoma
# [22] = test system: MCF7 breast
# [23] = test system: SK-MEL-2 melanoma
# [24] = test system: HCT-116 colon
# [25] = test system: NCI/ADR-RES ovarian
# [26] = test system: HS 578T breast
# [27] = test system: CAKI-1 renal
# [28] = test system: NCI-H522 lung
# [29] = test system: ACHN renal
# [30] = test system: T-47D breast
# [31] = test system: IGROV1 ovarian
# [32] = test system: HOP-62 NSCLC
# [33] = test system: UACC-257 melanoma
# [34] = test system: DU-145 prostate
# [35] = test system: OVCAR-5 ovarian
# [36] = test system: NCI-H226 lung
# [37] = test system: RXF 393 renal
# [38] = test system: 786-0 renal
# [39] = test system: OVCAR-3 ovarian
# [40] = test system: UO-31 renal
# [41] = test system: HL-60(TB) leukemia
# [42] = test system: OVCAR-4 ovarian
# [43] = test system: PC-3 prostate
# [44] = test system: SR leukemia
# [45] = test system: MDA-MB-231 breast
# [46] = test system: EKVX NSCLC
# [47] = test system: HCC-2998 colon
# [48] = test system: SNB-75 CNS
# [49] = test system: SK-OV-3 ovarian
# [50] = test system: A498 renal
# [51] = test system: SF-295 CNS
# [52] = test system: KM12 colon
# [53] = test system: HOP-92 NSCLC
# [54] = test system: SF-268 CNS
# [55] = test system: K-562 leukemia
# [56] = test system: SNB-19 CNS
# [57] = test system: TK-10 renal
# [58] = test system: BT-549 breast
smiles,measurement,setting,value
O=C(NN1C(=O)/C(=C/C=C/c2ccc([N+](=O)[O-])o2)SC1=S)c1ccccc1O,GI50,[1],390 nM
same,TGI,[1],7560 nM
same,GI50,[2],957 nM
same,TGI,[2],2280 nM
same,GI50,[3],1400 nM
same,TGI,[3],3070 nM
same,GI50,[4],194 nM
same,TGI,[4],402 nM
same,GI50,[5],771 nM
same,TGI,[5],2030 nM
same,GI50,[6],196 nM
same,TGI,[6],426 nM
same,GI50,[7],149 nM
same,TGI,[7],340 nM
same,GI50,[8],2980 nM
same,TGI,[8],10500 nM
same,GI50,[9],237 nM
same,TGI,[9],714 nM
same,GI50,[10],379 nM
same,TGI,[10],2530 nM
same,GI50,[11],675 nM
same,TGI,[11],1900 nM
same,GI50,[12],223 nM
same,TGI,[12],507 nM
same,GI50,[13],371 nM
same,TGI,[13],1380 nM
same,GI50,[14],1000 nM
same,TGI,[14],2780 nM
same,GI50,[15],318 nM
same,TGI,[15],1490 nM
same,GI50,[16],1270 nM
same,TGI,[16],2620 nM
same,GI50,[17],1680 nM
same,TGI,[17],3130 nM
same,GI50,[18],366 nM
same,TGI,[18],1600 nM
same,GI50,[19],846 nM
same,TGI,[19],2170 nM
same,GI50,[20],1310 nM
same,TGI,[20],2670 nM
same,GI50,[21],298 nM
same,TGI,[21],873 nM
same,GI50,[22],432 nM
same,TGI,[22],2020 nM
same,GI50,[23],663 nM
same,TGI,[23],2060 nM
same,GI50,[24],197 nM
same,TGI,[24],395 nM
same,GI50,[25],1780 nM
same,TGI,[25],5750 nM
same,GI50,[26],2100 nM
same,TGI,[26],7470 nM
same,GI50,[27],1330 nM
same,TGI,[27],2670 nM
same,GI50,[28],262 nM
same,TGI,[28],749 nM
same,GI50,[29],1460 nM
same,TGI,[29],2780 nM
same,GI50,[30],1630 nM
same,TGI,[30],3230 nM
same,GI50,[31],1230 nM
same,TGI,[31],2480 nM
same,GI50,[32],1620 nM
same,TGI,[32],3110 nM
same,GI50,[33],1720 nM
same,TGI,[33],3600 nM
same,GI50,[34],1590 nM
same,TGI,[34],3020 nM
same,GI50,[35],1840 nM
same,TGI,[35],3300 nM
same,GI50,[36],1110 nM
same,TGI,[36],2690 nM
same,GI50,[37],1420 nM
same,TGI,[37],2760 nM
same,GI50,[38],1110 nM
same,TGI,[38],2330 nM
same,GI50,[39],1230 nM
same,TGI,[39],2540 nM
same,GI50,[40],1240 nM
same,TGI,[40],2490 nM
same,GI50,[41],1730 nM
same,TGI,[41],9470 nM
same,GI50,[42],1720 nM
same,TGI,[42],3720 nM
same,GI50,[43],1920 nM
same,TGI,[43],4940 nM
same,GI50,[44],221 nM
same,TGI,[44],> 100000 nM
same,GI50,[45],257 nM
same,TGI,[45],613 nM
same,GI50,[46],1370 nM
same,TGI,[46],2750 nM
same,GI50,[47],1370 nM
same,TGI,[47],2700 nM
same,GI50,[48],1290 nM
same,TGI,[48],5840 nM
same,GI50,[49],2260 nM
same,TGI,[49],5280 nM
same,GI50,[50],18300 nM
same,TGI,[50],32600 nM
same,GI50,[51],1790 nM
same,TGI,[51],3420 nM
same,GI50,[52],1620 nM
same,TGI,[52],3770 nM
same,GI50,[53],1680 nM
same,TGI,[53],4130 nM
same,GI50,[54],1800 nM
same,TGI,[54],4200 nM
same,GI50,[55],276 nM
same,TGI,[55],> 33300 nM
same,GI50,[56],1760 nM
same,TGI,[56],3340 nM
same,GI50,[57],1960 nM
same,TGI,[57],4190 nM
same,GI50,[58],673 nM
same,TGI,[58],1800 nM

# From PubChem BioAssay (NCI)
